From PMC7550916 (Computational and Structural Biotechnology Journal, 2020) come the findings set out here.

Assay [1] concerns human A2A^Δ40R (pHALO-tagged). The assay is classed as binding.
Assay [2] has as its system non-transfected HEK-293T cells. Briefly: ERK1/2 phosphorylation in non-transfected cells. The assay is classed as cell-based, human. To be noted: non-transfected HEK-293T cells (Fig. S1A).
The target of the next assay is A2AR (Homo sapiens, UniProt P29274). Briefly: cAMP determination. As to conditions: against all agonists (Fig. S8).
A2AR, sequence (P29274 whole entry): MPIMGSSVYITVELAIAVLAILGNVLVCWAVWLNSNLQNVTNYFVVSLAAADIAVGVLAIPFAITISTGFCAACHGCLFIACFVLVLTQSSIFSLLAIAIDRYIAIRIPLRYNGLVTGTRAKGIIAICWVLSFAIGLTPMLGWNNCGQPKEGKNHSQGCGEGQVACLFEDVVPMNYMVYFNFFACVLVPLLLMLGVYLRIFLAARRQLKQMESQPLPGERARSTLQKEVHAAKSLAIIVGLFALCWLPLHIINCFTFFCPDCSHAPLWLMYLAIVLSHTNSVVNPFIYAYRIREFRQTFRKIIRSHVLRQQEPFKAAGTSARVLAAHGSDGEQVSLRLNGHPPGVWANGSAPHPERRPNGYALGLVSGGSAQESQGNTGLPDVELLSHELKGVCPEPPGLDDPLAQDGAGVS

Turning to `CCNC(=O)[C@H]1O[C@@H](n2cnc3c(N)nc(NCCc4ccc(CCC(=O)O)cc4)nc32)[C@H](O)[C@@H]1O` [CGS-21680], in assay [1], the “ΔΔG (binding free energy difference between wild type and truncated receptor)” value is listed as 0.5 kcal/mol. The “ERK1/2 phosphorylation vs basal” value in assay [2] is “not significantly different to the basal condition”.

As for `Nc1nc2c(cnn2CCc2ccccc2)c2nc(-c3ccco3)nn12` [SCH-58261], the “effect of antagonist on agonist-induced cAMP production” value at A2AR was “blockade of cAMP production”.
